These results are taken from US20080188502A1, “New Compounds I” (AstraZeneca AB, priority 2006, published 2008).

Where a name gives a salt, the structure may show the parent alone.

This assay deals with T1, recombinant human GSK3β (Homo sapiens, UniProt P49841).
T1 construct: purchased Dundee University, UK
T1 sequence (P49841 whole entry): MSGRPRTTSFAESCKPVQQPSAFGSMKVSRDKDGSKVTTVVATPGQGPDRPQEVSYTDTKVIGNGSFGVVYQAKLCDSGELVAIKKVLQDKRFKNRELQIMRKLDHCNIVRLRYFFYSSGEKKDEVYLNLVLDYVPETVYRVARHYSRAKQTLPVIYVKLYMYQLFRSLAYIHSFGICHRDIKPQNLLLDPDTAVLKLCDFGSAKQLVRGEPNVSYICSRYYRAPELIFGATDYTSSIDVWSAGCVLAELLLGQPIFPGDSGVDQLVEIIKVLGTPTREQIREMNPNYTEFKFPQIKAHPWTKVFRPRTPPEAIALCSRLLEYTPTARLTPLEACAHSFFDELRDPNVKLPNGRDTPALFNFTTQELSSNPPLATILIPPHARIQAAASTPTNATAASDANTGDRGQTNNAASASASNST
In words: GSK3β Scintillation Proximity Assay (ATP competition). The settings on record: inhibition constants calculated with Km of ATP for GSK3β of 20 μM; 1 μM ATP, 1 μM biotinylated peptide substrate. The assay is classed as biochemical. The protocol: Determination of ATP Competition in Scintillation Proximity GSK3β Assay.
GSK3β Scintillation Proximity Assay.
The competition experiments were carried out in duplicate with 10 different concentrations of the inhibitors in clear-bottom microtiter plates (Wallac, Finland). A biotinylated peptide substrate, Biotin-Ala-Ala-Glu-Glu-Leu-Asp-Ser-Arg-Ala-Gly-Ser(PO3H2)-Pro-Gln-Leu (AstraZeneca, Lund), was added at a final concentration of 1 μM in an assay buffer containing 1 mU recombinant human GSK3β (Dundee University, UK), 12 mM morpholinepropanesulfonic acid (MOPS), pH 7.0, 0.3 mM EDTA, 0.01% β-mercaptoethanol, 0.004% Brij 35 (a […] detergent), 0.5% glycerol and 0.5 μg BSA/25 μl. The reaction was initiated by the addition of 0.04 μCi [γ-^33P]ATP (Amersham, UK) and unlabelled ATP at a final concentration of 1 μM and assay volume of 25 μl. After incubation for 20 minutes at room temperature, each reaction was terminated by the addition of 25 μl stop solution containing 5 mM EDTA, 50 μM ATP, 0.1% Triton X-100 and 0.25 mg streptavidin coated Scintillation Proximity Assay (SPA) beads (Amersham, UK). After 6 hours the radioactivity was determined in a liquid scintillation counter (1450 MicroBeta Trilux, Wallac). The inhibition curves were analysed by non-linear regression using GraphPad Prism, USA. The Km value of ATP for GSK3β, used to calculate the inhibition constants (Ki) of the various compounds, was 20 μM.
For the compound `Cc1ncc(-c2nc(Nc3ccc(C(=O)N4CCC(C)CC4)nc3)ncc2F)n1C1CCOCC1` [Example 27, [5-[[5-Fluoro-4-[2-methyl-3-(oxan-4-yl)imidazol-4-yl]pyrimidin-2-yl]amino]pyridin-2-yl]-(4-methyl-1-piperidyl)methanone], the Ki (commonly the equilibrium dissociation constant of an inhibitor or competing ligand from its target) was 0.028 µM.

On to `Cc1ncc(-c2nc(Nc3ccc(C(=O)N4CCN(Cc5ccccc5)CC4)nc3)ncc2F)n1C1CCOCC1` [Example 28, (4-Benzylpiperazin-1-yl)-[5-[[5-fluoro-4-[2-methyl-3-(oxan-4-yl)imidazol-4-yl]pyrimidin-2-yl]amino]pyridin-2-yl]methanone], for which the Ki is 0.019 µM.

As for `Cc1ncc(-c2nc(Nc3ccc(C(=O)N4CCC(F)(F)CC4)nc3)ncc2F)n1C1CCOCC1` [Example 29, (4,4-Difluoro-1-piperidyl)-[5-[[5-fluoro-4-[2-methyl-3-(oxan-4-yl)imidazol-4-yl]pyrimidin-2-yl]amino]pyridin-2-yl]methanone], the inhibition constant (Ki) was 0.034 µM.

`Cc1ncc(-c2nc(Nc3ccc(C(=O)N(Cc4ccccc4)C(C)C)nc3)ncc2F)n1C1CCOCC1` [Example 30, N-Benzyl-5-[[5-fluoro-4-[2-methyl-3-(oxan-4-yl)imidazol-4-yl]pyrimidin-2-yl]amino]-N-propan-2-yl-pyridine-2-carboxamide]: the Ki is 0.017 µM.

For the compound `Cc1ncc(-c2nc(Nc3ccc(C(=O)N(C)CC(C)C)nc3)ncc2F)n1C1CCOCC1` [Example 31, 5-[[5-Fluoro-4-[2-methyl-3-(oxan-4-yl)imidazol-4-yl]pyrimidin-2-yl]amino]-N-methyl-N-(2-methylpropyl)pyridine-2-carboxamide], the Ki was 0.012 µM.

For the compound `Cc1ncc(-c2nc(Nc3ccc(C(=O)N4CCC(F)CC4)nc3)ncc2F)n1C1CCOCC1` [Example 32, [5-[[5-Fluoro-4-[2-methyl-3-(oxan-4-yl)imidazol-4-yl]pyrimidin-2-yl]amino]pyridin-2-yl]-(4-fluoro-1-piperidyl)methanone], the Ki is 0.033 µM.

`CCN(Cc1ccccc1)C(=O)c1ccc(Nc2ncc(F)c(-c3cnc(C)n3C3CCOCC3)n2)cn1` [Example 33, N-Benzyl-N-ethyl-5-[[5-fluoro-4-[2-methyl-3-(oxan-4-yl)imidazol-4-yl]pyrimidin-2-yl]amino]pyridine-2-carboxamide]: the Ki is 0.016 µM.

As for `CCC(C)N1CCN(C(=O)c2ccc(Nc3ncc(F)c(-c4cnc(C)n4C4CCOCC4)n3)cn2)CC1` (centres unmarked) [Example 34, (4-Butan-2-ylpiperazin-1-yl)-[5-[[5-fluoro-4-[2-methyl-3-(oxan-4-yl)imidazol-4-yl]pyrimidin-2-yl]amino]pyridin-2-yl]methanone], the inhibitory constant (Ki) was 0.085 µM.

Consider `CCCN(CC1CC1)C(=O)c1ccc(Nc2ncc(F)c(-c3cnc(C)n3C3CCOCC3)n2)cn1` [Example 35], for which the Ki is 0.02 µM.

Regarding `Cc1ncc(-c2nc(Nc3ccc(C(=O)N4CCN(c5ccc(F)cc5)CC4)nc3)ncc2F)n1C1CCOCC1` [Example 36, [5-[[5-Fluoro-4-[2-methyl-3-(oxan-4-yl)imidazol-4-yl]pyrimidin-2-yl]amino]pyridin-2-yl]-[4-(4-fluorophenyl)piperazin-1-yl]methanone], the Ki is 0.01 µM.

`CCCN1CCN(C(=O)c2ccc(Nc3ncc(F)c(-c4cnc(C)n4C4CCOCC4)n3)cn2)CC1` [Example 37, [5-[[5-Fluoro-4-[2-methyl-3-(oxan-4-yl)imidazol-4-yl]pyrimidin-2-yl]amino]pyridin-2-yl]-(4-propylpiperazin-1-yl)methanone]: the Ki is 0.056 µM.

Take `CCN(CC)C(=O)c1ccc(Nc2ncc(F)c(-c3cnc(C)n3C3CCOCC3)n2)cn1` [Example 38, N,N-Diethyl-5-[[5-fluoro-4-[2-methyl-3-(oxan-4-yl)imidazol-4-yl]pyrimidin-2-yl]amino]pyridine-2-carboxamide]: the Ki is 0.029 µM.

Consider `Cc1ncc(-c2nc(Nc3ccc(C(=O)NCC(C)(C)CN(C)C)nc3)ncc2F)n1C1CCOCC1` [Example 39, N-(3-Dimethylamino-2,2-dimethyl-propyl)-5-[[5-fluoro-4-[2-methyl-3-(oxan-4-yl)imidazol-4-yl]pyrimidin-2-yl]amino]pyridine-2-carboxamide], for which the Ki was 0.16 µM.

Take `Cc1ncc(-c2nc(Nc3ccc(C(=O)N4CC(C)CC(C)C4)nc3)ncc2F)n1C1CCOCC1` (centres unmarked) [Example 40, (3,5-Dimethyl-1-piperidyl)-[5-[[5-fluoro-4-[2-methyl-3-(oxan-4-yl)imidazol-4-yl]pyrimidin-2-yl]amino]pyridin-2-yl]methanone]: the inhibition constant (Ki) is 0.016 µM.

In the case of `Cc1ncc(-c2nc(Nc3cnc(C(=O)N4CCC4)c(Cl)c3)ncc2F)n1C1CCOCC1` [Example 42, Azetidin-1-yl-[3-chloro-5-[[5-fluoro-4-[2-methyl-3-(oxan-4-yl)imidazol-4-yl]pyrimidin-2-yl]amino]pyridin-2-yl]methanone], the Ki was 0.011 µM.

Regarding `CN1CCN(C(=O)c2ncc(Nc3ncc(F)c(-c4cnc(C(F)(F)F)n4C4CCOCC4)n3)cc2Cl)CC1` [Example 43, [3-Chloro-5-[[5-fluoro-4-[3-(oxan-4-yl)-2-(trifluoromethyl)imidazol-4-yl]pyrimidin-2-yl]amino]pyridin-2-yl]-(4-methylpiperazin-1-yl)methanone], the Ki is 0.023 µM.

`CN1CCN(C(=O)c2ncc(Nc3ncc(F)c(-c4cnc(C(F)(F)F)n4C)n3)cc2Cl)CC1` [Example 44, [3-Chloro-5-[[5-fluoro-4-[3-methyl-2-(trifluoromethyl)imidazol-4-yl]pyrimidin-2-yl]amino]pyridin-2-yl]-(4-methylpiperazin-1-yl)methanone]: the inhibition constant (Ki) is 0.055 µM.

As for `Cn1c(-c2nc(Nc3cnc(C(=O)N4CCC4)c(Cl)c3)ncc2F)cnc1C(F)(F)F` [Example 45, Azetidin-1-yl-[3-chloro-5-[[5-fluoro-4-[3-methyl-2-(trifluoromethyl)imidazol-4-yl]pyrimidin-2-yl]amino]pyridin-2-yl]methanone hydrochloride], the inhibitory constant (Ki) is 0.032 µM.

In the case of `Cc1ncc(-c2nc(Nc3ccc(C(=O)N4CCC4)nc3)ncc2F)n1C` [Example 46, N-[6-(Azetidin-1-ylcarbonyl)pyridin-3-yl]-4-(1,2-dimethyl-1H-imidazol-5-yl)-5-fluoropyrimidin-2-amine], the Ki is 0.039 µM.

In the case of `Cc1ncc(-c2nc(Nc3ccc(C(=O)N4CCN(C)CC4)nc3)ncc2F)n1C` [Example 47, 4-(1,2-Dimethyl-1H-imidazol-5-yl)-5-fluoro-N-{6-[(4-methylpiperazin-1-yl)carbonyl]pyridin-3-yl}pyrimidin-2-amine], the Ki is 0.1 µM.

On to `Cc1ncc(-c2nc(Nc3cnc(C(=O)N4CCC4)c(Cl)c3)ncc2F)n1C` [Example 48, N-[6-(Azetidin-1-ylcarbonyl)-5-chloropyridin-3-yl]-4-(1,2-dimethyl-1H-imidazol-5-yl)-5-fluoropyrimidin-2-amine], for which the Ki is 0.016 µM.

Take `Cc1ncc(-c2nc(Nc3cnc(C(=O)N4CCN(C)CC4)c(Cl)c3)ncc2F)n1C` [Example 49, N-[5-Chloro-6-[(4-methylpiperazin-1-yl)carbonyl]pyridin-3-yl]-4-(1,2-dimethyl-1H-imidazol-5-yl)-5-fluoropyrimidin-2-amine]: the Ki was 0.019 µM.

On to `Cc1ncc(-c2nc(Nc3ccc(S(=O)(=O)C(C)C)nc3)ncc2F)n1C1CCOCC1` [Example 50, {5-Fluoro-4-[2-methyl-3-(tetrahydro-pyran-4-yl)-3H-imidazol-4-yl]-pyrimidin-2-yl}-[6-(propan-2-ylsulfonyl)-pyridin-3-yl]-amine], for which the inhibitory constant (Ki) was 0.033 µM.
